Data set [1] relates to Staphylococcus aureus. Description: Antimicrobial activity against methicillin-resistant Staphylococcus aureus ATCC 33591 measured after overnight incubation by microdilution broth method. Type of data set: functional.
Data set [2] is described as follows: Selectivity ratio of MIC90 for methicillin-resistant Staphylococcus aureus ATCC 33591 to MIC90 for methicillin-resistant Staphylococcus aureus ATCC BAA-44. It is filed as functional.
Data set [3] has as its system Staphylococcus aureus. Description: Antimicrobial activity against methicillin-resistant Staphylococcus aureus ATCC BAA-44 measured after overnight incubation by microdilution broth method. Type of data set: functional. For orientation: Dilution methods test growth across graded concentrations, often in twofold steps.
A short description of data set [4]: Hemolytic activity in human RBC at 128 ug/ml after 1 hr. Type of data set: ADME, cell-based, Erythrocyte. Conditions: red blood cells, read-out: Activity.
For data set [5], the system named is Staphylococcus aureus. Description: Growth inhibition of methicillin-resistant Staphylococcus aureus ATCC 33591 at 64 ug/ml measured after overnight incubation by microdilution broth method relative to control. It is filed as functional. The conditions noted are these: read-out: GI.
A short description of data set [6]: Antimicrobial activity against vancomycin-intermediate Staphylococcus aureus Mu50 ATCC 700699 measured after overnight incubation by microdilution broth method. It is filed as functional, Staphylococcus aureus subsp. aureus Mu50.
Data set [7] can be described thus: Cytotoxicity against HEK cells assessed as reduction in cell viability after 48 hrs by MTT assay. It is filed as toxicity, cell-based, HEK293. The conditions noted are these: human, read-out: MIC50. (Tetrazolium assays rely on reduction of a dye to a coloured formazan, in cell work by metabolically active cells.)
A short description of data set [8]: Selectivity ratio of MIC90 for vancomycin-intermediate Staphylococcus aureus Mu50 ATCC 700699 to MIC90 for methicillin-resistant Staphylococcus aureus ATCC BAA-44. It is filed as functional.
Data set [9] can be described thus: Therapeutic index, ratio of IC50 for HEK cells to MIC90 for methicillin-resistant Staphylococcus aureus ATCC BAA-44. It is filed as cell-based, HEK293. The conditions noted are these: human, read-out: TI.
For data set [10], the system named is Staphylococcus aureus. Description: Inhibition of Staphylococcus aureus DNA gyrase assessed as reduction in supercoiling of relaxed pHOT-1 after 30 mins by SDS based agarose gel electrophoresis.
Data set [11] deals with Staphylococcus aureus. The data set is described as follows: Antimicrobial activity against methicillin-resistant Staphylococcus aureus USA300-0114 infected in Galleria Mellonella assessed as increase in larvae survival at 10 times MIC measured 24 to 48 hrs post dose. It is filed as functional.
In data set [12] the test system is Staphylococcus aureus. Description: Antimicrobial activity against methicillin-resistant Staphylococcus aureus USA300-0114 infected in Galleria Mellonella assessed as increase in survival of worms at 5 times MIC measured 24 to 48 hrs post dose. Type of data set: functional.

The source made the active and inactive calls. The calls are words filed in the database; no cut-off is given here.

In the case of `Oc1ccc(C[C@H]2CN3C(=N2)SC(c2ccccc2)=C3c2ccccc2)cc1`, the MIC90 (as a rule, an inhibitory concentration at the 90% level, which refers to growth in some studies and to a panel of isolates in others) was 84 µM in the data set with Staphylococcus aureus [1] and 42 µM with Staphylococcus aureus [3]. In addition, in data set [2], the Selectivity ratio turned out to be 2. Also, in data set [4], the hemolysis at 1 h, 128 ug/ml is less than 2%. Also, the inhibition of growth at 64 µg/mL in the data set with Staphylococcus aureus [5] is more than 80%.

On to `CC(C)C[C@H]1CN2C(=N1)SC(c1ccccc1)=C2c1ccccc1`, for which the MIC90 in the data set on Staphylococcus aureus [1] was 48 µM; with Staphylococcus aureus [3], 24 µM. Also, in data set [2], the Selectivity ratio was 2. Moreover, in data set [4], the hemolysis at 1 h, 128 ug/ml was less than 2%. The inhibition of growth at 64 µg/mL in the data set with Staphylococcus aureus [5] is more than 80%.

On to `N=C(N)NCCC[C@H]1CN2C(c3ccc4ccccc4c3)=CSC2=N1`, for which the results for the MIC90 against Staphylococcus aureus [1] and in the data set with Staphylococcus aureus [3] were 364 µM and 182 µM, respectively. Besides, the Selectivity ratio in [2] is 2. Moreover, the hemolysis at 1 h, 128 ug/ml in data set [4] is less than 2%. For the same compound, in the data set with Staphylococcus aureus [5], the inhibition of growth at 64 µg/mL was more than 80%.

For `CN[C@H](CC(C)C)C(=O)N[C@H]1C(=O)N[C@@H](CC(N)=O)C(=O)N[C@H]2C(=O)N[C@H]3C(=O)N[C@H](C(=O)N[C@H](C(=O)O)c4cc(O)cc(O)c4-c4cc3ccc4O)[C@H](O)c3ccc(c(Cl)c3)Oc3cc2cc(c3O[C@@H]2O[C@H](CO)[C@@H](O)[C@H](O)[C@H]2O[C@H]2C[C@](C)(N)[C@H](O)[C@H](C)O2)Oc2ccc(cc2Cl)[C@H]1O` [VANCOMYCIN], the MIC90 in the data set on Staphylococcus aureus [1] stood at 2 µg/mL; against Staphylococcus aureus [3] it was 4 µg/mL; in data set [6], 8 µg/mL.

In the case of `N=C(N)NCCC[C@@H]1CN2C(=N1)SC(c1ccccc1)=C2c1ccccc1`, the MIC90 is 111 µM against Staphylococcus aureus [1], 338 µM with Staphylococcus aureus [3] and 338 µM in data set [6]. For the same compound, in [7], the CC50 at 48 h turned out to be 100 µM. In data set [4], the hemolysis at 1 h, 128 ug/ml was less than 2%. Moreover, in data set [8], the Selectivity ratio stood at 2. In data set [9], the selectivity ratio turned out to be 0.3.

For the compound `CC(C)C[C@H]1CN2C(c3ccc4ccccc4c3)=CSC2=N1`, the MIC90 in the data set with Staphylococcus aureus [1] amounted to 102 µM; in the data set on Staphylococcus aureus [3], 51 µM. For the same compound, in data set [2], the Selectivity ratio is 2. In addition, the hemolysis at 1 h, 128 ug/ml in data set [4] is less than 2%. Further, in the data set with Staphylococcus aureus [5], the inhibition of growth at 64 µg/mL was more than 80%.

In the case of `Oc1ccc(C[C@@H]2CN3C(=N2)SC(c2ccccc2)=C3c2ccccc2)cc1`, the MIC90 with Staphylococcus aureus [1] worked out at 20 µM; against Staphylococcus aureus [3], 31 µM; in data set [6], 40 µM. For the same compound, in data set [7], the CC50 at 48 h came out at 72 µM. Also, in data set [4], the hemolysis at 1 h, 128 ug/ml is less than 2%. The Selectivity ratio in [8] is 2. The selectivity ratio in data set [9] is 2.3.

For `c1ccc(C[C@H]2CN3C(=N2)SC(c2ccccc2)=C3c2ccccc2)cc1`, the MIC90 was 173 µM against Staphylococcus aureus [1] and 21 µM with Staphylococcus aureus [3]. For the same compound, the Selectivity ratio in data set [2] turned out to be 2. Further, the hemolysis at 1 h, 128 ug/ml in data set [4] was less than 2%. For the same compound, the inhibition of growth at 64 µg/mL in the data set with Staphylococcus aureus [5] was more than 80%.

On to `CC(C)C[C@@H]1CN2C(c3ccc4ccccc4c3)=CSC2=N1`, for which the MIC90 with Staphylococcus aureus [1] came to 51 µM; in the data set on Staphylococcus aureus [3], 51 µM; in [6] it was 102 µM. Moreover, the CC50 at 48 h in [7] turned out to be 36 µM. In addition, the hemolysis at 1 h, 128 ug/ml in data set [4] is less than 2%. Besides, the Selectivity ratio in [8] came to 2. Besides, the selectivity ratio in [9] worked out at 0.7.

With `Cn1cc(C[C@H]2CN3C(=N2)SC(c2ccccc2)=C3c2ccccc2)c2ccccc21`, the MIC90 with Staphylococcus aureus [1] turned out to be 151 µM; with Staphylococcus aureus [3] it was 19 µM. Moreover, in [2], the Selectivity ratio was 2. The hemolysis at 1 h, 128 ug/ml in [4] was less than 2%. Besides, the inhibition of growth at 64 µg/mL with Staphylococcus aureus [5] is more than 80%.

Turning to `CC(C)C[C@@H]1CN2C(=N1)SC(c1ccccc1)=C2c1ccccc1`, the MIC90 in the data set with Staphylococcus aureus [1] amounted to 12 µM; in the data set with Staphylococcus aureus [3], 11 µM; in [6], 24 µM. For the same compound, the CC50 at 48 h in data set [7] was 56 µM. For the same compound, the inhibition result in the data set with Staphylococcus aureus [10] was “Dose-dependent effect”. In addition, the result in the data set with Staphylococcus aureus [11] and with Staphylococcus aureus [12] was Active. Besides, the hemolysis at 1 h, 128 ug/ml in data set [4] is less than 2%. In data set [8], the Selectivity ratio was found to be 2. The selectivity ratio in data set [9] was 5.

`N=C(N)NCCC[C@H]1CN2C(=N1)SC(c1ccccc1)=C2c1ccccc1`: the MIC90 turned out to be 169 µM against Staphylococcus aureus [1] and 338 µM in the data set on Staphylococcus aureus [3]. The Selectivity ratio in data set [2] stood at 2. Besides, in [4], the hemolysis at 1 h, 128 ug/ml was less than 2%. Moreover, the inhibition of growth at 64 µg/mL with Staphylococcus aureus [5] is more than 80%.

As for `Cn1cc(C[C@@H]2CN3C(c4ccc5ccccc5c4)=CSC3=N2)c2ccccc21`, the MIC90 against Staphylococcus aureus [1] was determined as 10 µM; in the data set with Staphylococcus aureus [3] it was 10 µM; in data set [6], 40 µM. Moreover, the CC50 at 48 h in data set [7] worked out at 20 µM. In data set [4], the hemolysis at 1 h, 128 ug/ml was less than 2%. Besides, in data set [8], the Selectivity ratio amounted to 2. Besides, in data set [9], the selectivity ratio was determined as 2.

For `COc1cccc(OC)c1C(=O)N[C@@H]1C(=O)N2[C@@H]1SC(C)(C)[C@@H]2C(=O)O` [METHICILLIN], the MIC90 (against Staphylococcus aureus [1]; against Staphylococcus aureus [3]; in data set [6]) was more than 128 µg/mL each time.

For `c1ccc(C[C@@H]2CN3C(=N2)SC(c2ccccc2)=C3c2ccccc2)cc1`, the MIC90 in the data set with Staphylococcus aureus [1] was 21 µM; against Staphylococcus aureus [3] it was 14.6 µM; in data set [6] it was 42 µM. For the same compound, in data set [7], the CC50 at 48 h is 71 µM. Also, the hemolysis at 1 h, 128 ug/ml in data set [4] was less than 2%. For the same compound, in [8], the Selectivity ratio is 2. The selectivity ratio in data set [9] is 4.9.

With `Cn1cc(C[C@@H]2CN3C(=N2)SC(c2ccccc2)=C3c2ccccc2)c2ccccc21`, the MIC90 amounted to 38 µM against Staphylococcus aureus [1], 9.5 µM in the data set with Staphylococcus aureus [3] and 19 µM in [6]. In addition, in data set [7], the CC50 at 48 h was 63 µM. The hemolysis at 1 h, 128 ug/ml in data set [4] was less than 2%. For the same compound, the Selectivity ratio in data set [8] was 2. Further, the selectivity ratio in [9] was 6.6.

Take `Cn1cc(C[C@H]2CN3C(c4ccc5ccccc5c4)=CSC3=N2)c2ccccc21`: the MIC90 was determined as 162 µM with Staphylococcus aureus [1] and 20 µM against Staphylococcus aureus [3]. For the same compound, the Selectivity ratio in data set [2] was 2. Further, the hemolysis at 1 h, 128 ug/ml in data set [4] was less than 2%. Besides, the inhibition of growth at 64 µg/mL in the data set on Staphylococcus aureus [5] was more than 80%.

As to `N=C(N)NCCC[C@@H]1CN2C(c3ccc4ccccc4c3)=CSC2=N1`, the MIC90 in the data set with Staphylococcus aureus [1] was found to be 69 µM; with Staphylococcus aureus [3], 69 µM; in [6], 184 µM. Moreover, in [7], the CC50 at 48 h was determined as 257 µM. In addition, the hemolysis at 1 h, 128 ug/ml in data set [4] was less than 2%. Further, in data set [8], the Selectivity ratio came to 2. Also, in data set [9], the selectivity ratio is 3.7.

For the origin of these results see ChEMBL document CHEMBL3856267, “Identification of 5,6-dihydroimidazo[2,1-b]thiazoles as a new class of antimicrobial agents” (Bioorg Med Chem, 2016).
